Results published in patent publication US4876266A, “1-aralkyl-2-mercaptoimidazolines as DBH inhibitors” (SmithKline Beckman Corporation, priority 1987, dated 1989).

Tests used:
DBH = details: significance of the observation is uncertain; cited from earlier work
[1] = biological target: T1, dopamine-β-hydroxylase (DBH) (Bos taurus, UniProt P15101); assay: in vitro DBH inhibition, conversion of tyramine to octopamine in the presence of DBH, spectrophotometric absorbance at 330 nm; format: biochemical; details: concentration of compound at which DBH activity was halved
T1 sequence (P15101 1-610): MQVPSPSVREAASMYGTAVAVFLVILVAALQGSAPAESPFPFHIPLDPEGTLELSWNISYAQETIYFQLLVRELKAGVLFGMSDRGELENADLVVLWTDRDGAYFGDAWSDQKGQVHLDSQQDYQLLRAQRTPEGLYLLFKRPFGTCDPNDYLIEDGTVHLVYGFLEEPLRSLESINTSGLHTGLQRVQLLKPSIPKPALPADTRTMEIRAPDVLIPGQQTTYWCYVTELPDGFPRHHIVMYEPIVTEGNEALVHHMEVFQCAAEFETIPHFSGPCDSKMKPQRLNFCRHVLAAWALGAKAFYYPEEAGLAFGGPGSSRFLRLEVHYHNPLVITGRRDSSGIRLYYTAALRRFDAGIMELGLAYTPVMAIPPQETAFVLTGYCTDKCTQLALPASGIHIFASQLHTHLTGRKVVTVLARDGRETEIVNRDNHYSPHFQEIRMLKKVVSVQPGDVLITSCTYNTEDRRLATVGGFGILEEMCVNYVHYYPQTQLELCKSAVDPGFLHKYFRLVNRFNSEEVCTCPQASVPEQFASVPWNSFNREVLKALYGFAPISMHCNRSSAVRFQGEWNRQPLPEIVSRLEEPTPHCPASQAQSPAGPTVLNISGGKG
Experimental: Listed in Table III are the compounds of the invention that were tested for in vitro DBH inhibition by a standard procedure for assaying conversion of tyramine to octopamine in the presence of DBH. J. J. Pisano, et al., Biochim. Biophys. Acta, 43, 566-568 (1960). Octopamine was assayed following sodium periodate oxidation to p-hydroxybenzaldehyde by measuring spectrophotometric absorbance at 330 nm.

[2] = test system: spontaneously hypertensive rats; assay: mean arterial blood pressure in spontaneously hypertensive rats, indwelling cannulae in the tail arteries; format: in vivo, rat; details: 50 mg/kg orally; within approximately
Experimental: Further, spontaneously hypertensive rats were treated with a suspension or solution of 1-(3,5-difluorobenzyl)-2-mercaptoimidazoline at a dose of 50 mg/kg orally and mean arterial blood pressure was monitored for 260 minutes using indwelling cannulae in the tail arteries. […] Maximum blood pressure reduction was approximately 15 to 20 mm Hg.

Row | Structure (SMILES) | DBH levels in treated patients (DBH) | IC50 [1] [µM] | time after treatment to significant blood pressure reductions [2] [min]
1 | COC(=O)[C@H]1[C@H]2C[C@@H]3c4[nH]c5cc(OC)ccc5c4CCN3C[C@H]2C[C@@H](OC(=O)c2cc(OC)c(OC)c(OC)c2)[C@@H]1OC [reserpine] | lowered DBH levels | – | –
2 | S=C1NCCN1Cc1ccccc1 [1-Benzyl-2-mercaptoimidazoline] | – | 10 | –
3 | Fc1cc(F)cc(CN2CCN=C2S)c1 [1-(3,5-Difluorobenzyl)-2-mercaptoimidazoline] | – | 1.2 | ≤ 30
4 | CC(N)(Cc1ccc(O)c(O)c1)C(=O)O (stereo not drawn) [alpha-methyl-DOPA] | lowered DBH levels | – | –
